Test results as given in US7943611B2, “Imidazo[1,2-A]pyridin-3-yl-acetic acid hydrazides, processes, for their preparation and pharmaceutical uses thereof” (Ferrer International, S.A., priority 2006, dated 2011).

Experiments:
[1] = system: spontaneous motor activity in mice; assay: In vivo predictive sedation-hypnosis test (spontaneous motor activity, traveled distance); parameters: species or system mouse; conditions: for % Motor activity inhibition: male CD1 mice, single equimolecular intraperitoneal dose, traveled distance vs control over 30 min (first 5 min discarded); for ID50 inhibiting spontaneous motor activity: dose-response curve, intraperitoneal
Procedure: b) In Vivo Determination of Predictive Sedative-Hypnotic Action
The in vivo effects of these compounds were assessed by a predictive sedation-hypnosis test in mice (D. J. Sanger et al., Eur. J. Pharmacol., 313, 35-42, 1996; and G. Griebel et al., Psychopharmacology, 146, 205-213, 1999).
Groups of 5-8 male CD1 mice, weighing 22-26 g at the time of test, were used. The test compounds were administered in single equimolecular intraperitoneal doses, suspended in 0.25% agar with one drop of Tween in a volume of 10 mL/kg. Control animals received the vehicle alone. Using a Smart System (Panlab, S. L., Spain) the traveled distance in cm was recorded for each mouse at 5 min intervals during a period of 30 minutes after dosing. The inhibition percentage traveled distance of treated animals versus control animals (the first 5 min were discarded) was calculated.

[2] = system: α2-subunit of the GABAA receptor; assay: Ligand-binding assay, radiolabeled flumazenil competition, spinal cord membranes; conditions: rat spinal cord membranes, 1 nM radiolabeled flumazenil; for % Inhib 10^−5M (affinity for the α2-subunit of the GABAA receptor): 10^−5 M test compound; for % Inhib 10^−7M (affinity for the α2-subunit of the GABAA receptor): 10^−7 M test compound
Procedure: (§1) a) Ligand-Binding Assays. Determination of the Affinity of Test Compounds for α1- and α2-GABAA Receptor
(§2) Male Sprague-Dawley rats weighing 200-250 g at the time of experiment were used. After decapitation of the animal, the cerebellum (tissue that mostly contains α1-GABAA receptor) and spinal cord (tissue that mostly contains α2-GABAA receptor) were removed. The membranes were prepared according to the method by J. Lameh et al. (Prog. Neuro-Psychopharmacol. Biol. Psychiatry, 24, 979-991, 2000) and H. Noguchi et al. (Eur J Pharm, 434, 21-28, 2002) with slight modifications. Once the tissues weighed, they were suspended in 50 mM Tris.HCl (pH 7.4), 1:40 (v/v), or sucrose 0.32 M in the case of spinal cord, homogenized and then centrifuged at 20,000 g for 10 min at 7° C. The resulting pellet was resuspended under the same conditions and centrifuged again. The pellet was finally resuspended on a minimum volume and kept at −80° C. overnight. On the next day, the process was repeated until the final pellet was resuspended at a ratio of 1:10 (v/v) in the case of cerebellum and at a ratio of 1:5 (v/v) in the case of spinal cord.
(§3) Affinity was determined by competitive tests using radiolabeled flumazenil as ligand. The tests were performed according to the methods described by S. Arbilla et al. (Eur. J. Pharmacol., 130, 257-263, 1986); and Y. Wu et al. (Eur. J. Pharmacol., 278, 125-132, 1995) using 96-well microtiter plates. The membranes containing the study receptors, flumazenil (radiolabeling at a final concentration of 1 nM) and ascending concentrations of test compounds (in a total volume of 230 μl in 50 mM [pH 7.4] Tris.HCl buffer) were incubated. Simultaneously, the membranes were only incubated with the radiolabeled flumazenil (total binding, 100%) and in the presence of an elevated concentration of unradiolabeled flumazenil (non-specific binding, % estimation of radiolabeled ligand). The reactions started on adding the radiolabeled ligand followed by incubation for 60 minutes at 4° C. At the end of the incubation period, 200 μl of reaction were transferred to a multiscreen plate (Millipore) and filtered using a vacuum manifold and then washed three times with cold test buffer. The multiscreen plates were equipped with a GF/B filter that retained the membranes containing the receptors and the radiolabeled ligand which had been bound to the receptors. After washing, the plates were left till dry. Once dried, scintillation liquid was added and left under stirring overnight. The next day the plates were counted using a Perkin-Elmer Microbeta scintillation counter.
(§4) For analysis of the results the percentage of specific binding for every concentration of test compound was calculated as follows: % specific binding=(X−N/T−N)×100 where, • X: amount of bound ligand for every concentration of compound. • T: total binding, maximum amount bound to the radiolabeled ligand. • N: non-specific binding, amount of radiolabeled ligand bound in a non-specific way irrespective of the receptor used.
(§5) Every concentrations of compound were tested in triplicate and their mean values were used to determine the experimental values of % specific binding versus the concentration of compound. Affinity data are expressed as % inhibition at 10^−5 M and 10^−7 M concentrations.

[3] = target: T1, α1-subunit of the GABAA receptor (Rattus norvegicus, UniProt P62813); assay: Ligand-binding assay, radiolabeled flumazenil competition, cerebellum membranes; conditions: 1 nM radiolabeled flumazenil; for inhibition at 10 µM: 10^−5 M test compound, read-out: % Inhib 10^−5M (affinity for the α1-subunit of the GABAA receptor); for inhibition at 0.1 µM: 10^−7 M test compound, read-out: % Inhib 10^−7M (affinity for the α1-subunit of the GABAA receptor)
T1 construct: the cerebellum (tissue that mostly contains α1-GABAA receptor); from tissue; host or cells: rat cerebellum membranes
Procedure: as §1, §2, §3, §4, §5

Row | Structure (SMILES) | % Motor activity inhibition [1] [%] | ID50 inhibiting spontaneous motor activity ([1]; mice) [µmol/kg] | % Inhib 10^−5M (affinity for the α2-subunit of the GABAA receptor) [2] [%] | % Inhib 10^−7M (affinity for the α2-subunit of the GABAA receptor) [2] [%] | inhibition at 10 µM [3] [%] | inhibition at 0.1 µM [3] [%] | fold greater potency in inhibiting spontaneous motor activity compared to zolpidem ([1]; mice, from ID50 values) [fold]
1 | Cc1ccc(-c2nc3ccc(C)cn3c2CC(=O)N(C)C)cc1 [Zolpidem, N,N,6-trimethyl-2-p-tolylimidazo[1,2-a]pyridine-3-acetamide, reference compound] | 91.70 | 4.4 | 74.1 | 19.9 | 73.6 | – | –
2 | C/C=N/NC(=O)Cc1c(-c2ccc(C)cc2)nc2ccc(C)cn12 [Example 8, (6-Methyl-2-p-tolyl-imidazo[1,2-a]pyridin-3-yl)-acetic Acid Ethylidene-hydrazide] | 90.16 | – | 88.6 | 11.2 | 97.6 | 25.2 | –
3 | Cc1ccc(-c2nc3ccc(C)cn3c2CC(=O)N/N=C/c2ccc(Cl)cc2)cc1 [Example 7, (6-Methyl-2-p-tolyl-imidazo[1,2-a]pyridin-3-yl)-acetic Acid (4-chlorobenzylidene)-hydrazide] | 25.05 | – | – | – | 46.1 | 0.9 | –
4 | CC(C)=NNC(=O)Cc1c(-c2ccc(C)cc2)nc2ccc(C)cn12 [Example 9, (6-Methyl-2-p-tolyl-imidazo[1,2-a]pyridin-3-yl)-acetic acid isopropylidene-hydrazide] | 92.03 | – | 86.6 | 21.9 | 98.5 | 24.2 | –
5 | Cc1ccc(-c2nc3ccc(C)cn3c2CC(=O)N(C)N)cc1 [Example 6, (6-Methyl-2-p-tolyl-imidazo[1,2-a]pyridin-3-yl)-acetic Acid N-methyl-hydrazide] | 93.42 | – | 71.6 | 2.0 | 99 | 59.1 | –
6 | Cc1ccc(-c2nc3ccc(C)cn3c2CC(=O)NN)cc1 [Example 3, (6-Methyl-2-p-tolyl-imidazo[1,2-a]pyridin-3-yl)-acetic Acid Hydrazide] | 92.03 | 1.9 | – | – | 98.7 | 55.9 | 2
